In publication PMC11002876, “KcsA-Kv1.x chimeras with complete ligand-binding sites provide improved predictivity for screening selective Kv1.x blockers” (The Journal of Biological Chemistry, 2024):
Where a SMILES comes first, the peptide text is derived from it.

Assays:
[1] = test system: human Kv1.2; conditions: cited from earlier work; for IC50: human Kv1.2 channel blocking, patch-clamp, read-out: IC50, Kv1.x blocking (Kv1.2)
Experimental: Elution was done at 1 ml/min flow rate. Eluted peak fractions (1 ml) were analyzed by SDS-PAGE, then pooled and concentrated. The concentration of the purified protein was determined by measuring the UV absorbance at 280 nm using the protein extinction coefficient calculator in the ProtParam tool of Ex ...

[2] = test system: human Kv1.2 channel (hKv1.2); assay: Whole-cell patch-clamp, hKv1.2-expressing CHO cells; format: cell-based; conditions: see Table 1 and Fig. S2; 10 nM peptide in patch-clamp
Experimental: Chinese Hamster Ovarian cells were grown in Dulbecco’s modified Eagle’s medium–high glucose supplemented with 10% FBS, 2 mM L-glutamine, 100 U/ml penicillin-g, and 100 μg/ml streptomycin (Invitrogen) at 37 °C in a 5% CO2 and 95% air humidified atmosphere. Cells were passaged twice per week following a 5 min incubation in PBS containing 0.2 g/L EDTA. Chinese Hamster Ovarian cells were transiently transfected with plasmids encoding human Kv1.1 (hKCNA1 gene) and human Kv1.2 (hKCNA2 gene) in pCMV6-AC-GFP plasmid (RG211000 and RC222200, OriGene Technologies) using Lipofectamine 2000 (Invitrogen) following the manufacturer’s protocol, then cultured under standard conditions. Transfected cells were washed twice with 2 ml of extracellular solution (ECS, see below) and replated onto 35 mm polystyrene cell culture dishes (Cellstar, Greiner Bio-One) before the patch-clamp experiments. […] In general, currents were recorded 24 to 36 h after transfection.
Conventional whole-cell patch-clamp electrophysiology was used to record ionic currents. Micropipettes were pulled from GC150F-7.5 borosilicate capillaries (Harvard Apparatus) with tip diameters between 0.5 and 1 μm resulting in a tip resistance of 2 to 8 MΩ in the extracellular (bath) solution. […]
Native peptides, phage-expressed peptides, and positive controls used for them were dissolved in ECS supplemented with 0.1 mg/ml bovine serum albumin (BSA; Sigma-Aldrich Hungary). Bath perfusion around the measured cell with different extracellular solutions was achieved using a gravity flow micro perfusion system using a rate of 0.5 ml/min. […]
Voltage protocols: For measurement of Kv1.1 to 1.3 currents, voltage steps to +50 mV were applied from a holding potential of −120 mV and the peak current was measured every 15 s. […] The remaining current fraction at a given molar concentration was calculated as I/I0, where I0 is the peak current in the absence and I is the peak current at equilibrium block or […] after ∼2 min perfusion by the investigated peptide/phage.

[3] = test system: mouse Kv1.1; conditions: cited from earlier work
From the text: (§1) Peptide toxins of venomous animal origin as lead molecules for optimization may offer an advantage over small molecules in terms of potentially greater affinity and specificity. These miniproteins are usually up to 50 amino acids in length and can adopt distinct conformation with secondary structural elements stabilized by several disulfide bonds ([9], [10], [11]). Due to their considerable surface area, miniproteins can form stable complexes with target proteins through extensive interaction surfaces ([12], [13]). The miniprotein Kv1.3 blocker drug candidate, Dalazatide—a synthetic derivative ...

[4] = test system: Kv1.2; conditions: cited from earlier work
From the text: as §1

[5] = test system: KCa3.1; conditions: cited from earlier work
From the text: as §1

SMILES	IC50 [1]	potency ranking, Kv1.2 [2]	also measured
CC[C@H](C)[C@@H]1NC(=O)CNC(=O)[C@H](Cc2ccccc2)NC(=O)[C@H](CCC(N)=O)NC(=O)[C@H](C)NC(=O)[C@H](CCCCN)NC(=O)[C@@H]2CSSC[C@@H](C(=O)N[C@@H](Cc3ccc(O)cc3)C(=O)N3CCC[C@H]3C(=O)N[C@@H](Cc3c[nH]cn3)C(=O)O)NC(=O)[C@H](CCCCN)NC(=O)[C@@H]3CSSC[C@H](NC(=O)[C@H](CCC(N)=O)NC(=O)[C@H](CCCCN)NC(=O)[C@@H]4CCCN4C(=O)[C@H](CO)NC(=O)[C@H]([C@@H](C)O)NC(=O)[C@@H](NC(=O)[C@H](CCCCN)NC(=O)[C@@H](NC(=O)[C@H](CC(=O)O)NC(=O)[C@@H](NC(=O)[C@@H](NC(=O)[C@@H](N)[C@@H](C)O)C(C)C)[C@@H](C)CC)C(C)C)CSSC[C@H](NC(=O)[C@H](CCCCN)NC(=O)[C@H](C)NC(=O)CNC(=O)[C@H](C)NC(=O)[C@H](CCCNC(=N)N)NC1=O)C(=O)N[C@@H](CCSC)C(=O)N[C@@H](CC(N)=O)C(=O)NCC(=O)N[C@@H](CCCCN)C(=O)N3)C(=O)N[C@@H](CC(C)C)C(=O)N1CCC[C@H]1C(=O)N1CCC[C@H]1C(=O)N2 [HgTx1, Hongotoxin-1] (HELM PEPTIDE1{T.V.I.D.V.K.C.T.S.P.K.Q.C.L.P.P.C.K.A.Q.F.G.I.R.A.G.A.K.C.M.N.G.K.C.K.C.Y.P.H}$PEPTIDE1,PEPTIDE1,7:R3-29:R3|PEPTIDE1,PEPTIDE1,13:R3-34:R3|PEPTIDE1,PEPTIDE1,17:R3-36:R3$$$V2.0; N-terminus and C-terminus assumed)			inhibition of Kv1.2, in words [1]: equivalent high potency
CC[C@H](C)[C@H](NC(=O)[C@H](CCC(=O)O)NC(=O)[C@@H](NC(=O)CN)C(C)C)C(=O)N[C@@H](CC(N)=O)C(=O)N[C@H](C(=O)N[C@@H](CCCCN)C(=O)N[C@H]1CSSC[C@@H]2NC(=O)[C@H](CCCCN)NC(=O)CNC(=O)[C@H](Cc3ccccc3)NC(=O)[C@H](CCCNC(=N)N)NC(=O)[C@H](CCSC)NC(=O)CNC(=O)[C@H](C)NC(=O)[C@H](CC(=O)O)NC(=O)[C@H](CCCCN)NC(=O)[C@@H]3CSSC[C@@H](C(=O)N[C@H](C(=O)N4CCC[C@H]4C(=O)N[C@@H](CCCCN)C(=O)O)[C@@H](C)O)NC(=O)[C@H](Cc4c[nH]cn4)NC(=O)[C@H](CSSC[C@H](NC(=O)[C@H](CCC(N)=O)NC(=O)[C@@H]4CCCN4C(=O)[C@H](CO)NC(=O)CNC(=O)[C@H](CO)NC1=O)C(=O)N[C@@H](CC(C)C)C(=O)N[C@@H](CCCCN)C(=O)N1CCC[C@H]1C(=O)N3)NC(=O)[C@H](CCCCN)NC(=O)[C@H](CCCNC(=N)N)NC(=O)[C@H](CC(N)=O)NC(=O)[C@H](CCSC)NC2=O)C(C)C [KTX1, Kaliotoxin-1]	> 1000 nM	MTX > ShK >> KTX1	
CC[C@H](C)[C@@H]1NC(=O)[C@@H]2CSSC[C@H](NC(=O)[C@H](CO)NC(=O)[C@@H](N)C(C)C)C(=O)N[C@@H]([C@@H](C)O)C(=O)NCC(=O)N[C@@H](CO)C(=O)N[C@@H](CCCCN)C(=O)N[C@@H](CC(=O)O)C(=O)N[C@@H](CSSC[C@@H](C(=O)N[C@@H](CCCCN)C(=O)N[C@H]3CSSC[C@@H](C(N)=O)NC(=O)CNC(=O)[C@H](Cc4ccc(O)cc4)NC3=O)NC(=O)[C@H](CO)NC(=O)[C@H](CCCCN)NC(=O)[C@H](CC(N)=O)NC1=O)C(=O)N[C@@H](Cc1ccc(O)cc1)C(=O)N[C@@H](C)C(=O)N1CCC[C@H]1C(=O)N[C@H]1CSSC[C@H](NC(=O)CNC(=O)[C@H]([C@@H](C)O)NC(=O)[C@H](CCC(N)=O)NC(=O)[C@H](CCCCN)NC(=O)[C@H](CCCNC(=N)N)NC1=O)C(=O)N1CCC[C@H]1C(=O)N[C@@H](CC(N)=O)C(=O)N[C@@H](C)C(=O)N[C@@H](CCCCN)C(=O)N2 [MTX, Maurotoxin] (HELM PEPTIDE1{V.S.C.T.G.S.K.D.C.Y.A.P.C.R.K.Q.T.G.C.P.N.A.K.C.I.N.K.S.C.K.C.Y.G.C.[am]}$PEPTIDE1,PEPTIDE1,3:R3-24:R3|PEPTIDE1,PEPTIDE1,9:R3-29:R3|PEPTIDE1,PEPTIDE1,13:R3-19:R3|PEPTIDE1,PEPTIDE1,31:R3-34:R3$$$V2.0; N-terminus and C-terminus assumed)	0.8 nM	MTX > ShK >> KTX1	block of native Kv1.2, in words [1]: potent blocker
CC[C@H](C)[C@@H]1NC(=O)[C@@H](NC(=O)[C@H](CO)NC(=O)[C@@H](N)CCCNC(=N)N)CSSC[C@@H](C(=O)O)NC(=O)[C@H]([C@@H](C)O)NC(=O)CNC(=O)[C@@H]2CSSC[C@@H]3NC(=O)[C@H](CCC(N)=O)NC(=O)[C@H](Cc4ccccc4)NC(=O)[C@H](C)NC(=O)[C@H]([C@@H](C)O)NC(=O)[C@H](CSSC[C@H](NC(=O)[C@H](Cc4ccccc4)NC(=O)[C@H](CO)NC(=O)[C@H](CC(C)C)NC(=O)[C@H](CCCNC(=N)N)NC(=O)[C@H](Cc4ccc(O)cc4)NC(=O)[C@H](CCCCN)NC(=O)[C@H](CCSC)NC(=O)[C@H](CO)NC(=O)[C@H](Cc4c[nH]cn4)NC(=O)[C@H](CCCCN)NC3=O)C(=O)N[C@@H](CCCNC(=N)N)C(=O)N[C@@H](CCCCN)C(=O)N[C@@H]([C@@H](C)O)C(=O)N2)NC(=O)[C@H](CCCNC(=N)N)NC(=O)[C@H](CO)NC(=O)[C@H](CCCCN)NC(=O)[C@@H]2CCCN2C(=O)[C@H]([C@@H](C)CC)NC(=O)[C@H]([C@@H](C)O)NC(=O)[C@H](CC(=O)O)NC1=O [ShK, Stichodactyla toxin]	9 nM	MTX > ShK >> KTX1	
CC[C@H](C)[C@H](NC(=O)[C@H](C)NC(=O)[C@H](C)NC(=O)[C@H](C)N)C(=O)N[C@@H](CO)C(=O)N[C@H]1CSSC[C@@H]2NC(=O)[C@H](CCCCN)NC(=O)CNC(=O)[C@H](CC(N)=O)NC(=O)[C@H](CCCCN)NC(=O)[C@@H]3CSSC[C@@H](C(N)=O)NC(=O)[C@H](Cc4ccc(O)cc4)NC(=O)[C@H](Cc4ccc(O)cc4)NC(=O)[C@@H]4CSSC[C@H](NC(=O)[C@H](CCCCN)NC(=O)[C@@H]5CCCN5C(=O)[C@@H]5CCCN5C(=O)[C@H](CSSC[C@H](NC(=O)[C@H](CCCCN)NC(=O)[C@H](CCCNC(=N)N)NC(=O)[C@H](CC(N)=O)NC(=O)[C@H](CCSC)NC2=O)C(=O)N[C@@H](CCCCN)C(=O)N4)NC(=O)[C@H](CCC(=O)O)NC(=O)[C@@H]2CCCN2C(=O)[C@H](CO)NC(=O)CNC(=O)[C@H](C(C)C)NC1=O)C(=O)N[C@@H](CCCNC(=N)N)C(=O)N[C@@H](C)C(=O)N[C@@H](CCC(N)=O)C(=O)NCC(=O)N3 [Vm24, Vm24 toxin]			selectivity for Kv1.3 over mouse Kv1.1 [3]: limited selectivity; selectivity for Kv1.3 over Kv1.2 [4]: limited selectivity; selectivity for Kv1.3 over KCa3.1 [5]: limited selectivity
